What was measured:
Format in all cases: in vivo, Cydia pomonella
codling moth [1] = test: Trap capture with purified (2E,4E) and (2E,4Z) 2,4-decadienoic acid esters; conditions: 1 mg dose/gray septum; four orchards; means of 21 trap checks
Method: In this study, test compounds were highly purified synthetic samples. The purities of the compounds are expressed as percentages. Individual traps were baited with 1 mg dose/gray septum; five replicate blocks in four orchards; means of 21 total trap checks.

male codling moth = test: Pheromone preference paired-trap test: pheromone alone vs pheromone + HPV; conditions: for % Change (Ph+HPV/Phxl00) in Male CM Capture / Impact of HPV Blend on Pheromone Attractancy to Male CM / Male CM Capture with Pheromone + HPV Blend: ♂♂/trap/night ± SEM: Table 9
Text: Interaction of synthetic apple and pear odor blends, described above in Table 2, and their effect on the attractancy of synthetic pheromone to codling moth was also studied. For that purpose, series of paired-traps containing pheromone alone or pheromone in combination with synthetic host plant volatile blends were placed in walnut orchards.
Interaction of individual synthetic host plant volatiles or blends on the attractiveness of synthetic male pheromone to male codling moth administered in paired traps with pheromone alone or with pheromone and attractant 10 mg/red septum was also studied.
Pheromone traps (sticky wing traps, Trécé, Inc.,) were hung as pairs: a pheromone only baited-trap vs. a pheromone+HPV blend-baited trap. The two traps of a test pair were attached in close competitive proximity (120 cm apart) on a common hanger bar (PVC pipe). The paired-trap bars were hung 5-6 meters high on the outer canopies of trees. A single pair-trap was hung per tree and different replicate test trees were separated by five rows in a matrix through the orchard. Each pheromone trap was baited with ½ of a commercial pheromone-impregnated rubber septum (Trécé, Inc.). Septa were sectioned by a razor blade. The HPV blends evaporated from their own separate impregnated rubber septa containing 10 mg diluted in hexane/septum).
Tests were conducted in a Harley English walnut orchard. Tests spanned the entire two year seasons April-October with traps checked, males sexed, counted and removed every 2-7 days. Significant effect on pheromone trap capture were judged by paired tests either T-test or a nonparametric test.

codling moth [2] = test: Septa colour and loading dose trap study; parameters: ♂♂ ± SEM / ♀♀ ± SEM: unit not given here
Method: Since there have been differences observed between traps containing gray, white or red septa, a study was performed to determine the significance of the specific septa and their effect on the increase or decrease of attractancy. […]

[3] = 0.1 mg A, Gray Septa, High (high population conventional orchard)
[4] = 0.1 mg A, Gray Septa, Low (low population organic orchard)
[5] = 0.1 mg A, Red Septa, High (high population conventional orchard)
[6] = 0.1 mg A, Red Septa, Low (low population organic orchard)
[7] = 1.0 mg A, Gray Septa, High (high population conventional orchard)
[8] = 1.0 mg A, Gray Septa, Low (low population organic orchard)
[9] = 1.0 mg A, Red Septa, Low (low population organic orchard)
[10] = 3 mg A, Gray Septa, High (high population conventional orchard)
[11] = 3 mg A, Gray Septa, Low (low population organic orchard)
[12] = 3 mg A, Red Septa, High (high population conventional orchard)
[13] = 3 mg A, Red Septa, Low (low population organic orchard)
[14] = 10 mg A, Gray Septa, High (high population conventional orchard)
[15] = 10 mg A, Gray Septa, Low (low population organic orchard)
[16] = 10 mg A, Red Septa, High (high population conventional orchard)
[17] = 10 mg A, Red Septa, Low (low population organic orchard)
[18] = 20 mg A, Gray Septa, High (high population conventional orchard)
[19] = 20 mg A, Gray Septa, Low (low population organic orchard)
[20] = 20 mg A, Red Septa, High (high population conventional orchard)
[21] = 20 mg A, Red Septa, Low (low population organic orchard)
[22] = Gray Septa, High (high population conventional orchard)
[23] = Gray Septa, Low (low population organic orchard)
[24] = Red Septa, High (high population conventional orchard)
[25] = Red Septa, Low (low population organic orchard)

Compound: CCCCC/C=C\C=C\C(=O)OCCC [n-Propyl (2E,4Z)-2,4-Decadienoate]
- FEMALE CM Captured: ♂♂/trap/night ± SEM (codling moth [1]): 1.12 ± 0.39 ♀♀/trap/night
- MALE CM Captured: ♂♂/trap/night ± SEM (codling moth [1]): 0.49 ± 0.14 ♂♂/trap/night
- Total CM Captured: CM/trap/night ± SEM (codling moth [1]): 1.61 ± 0.49 CM/trap/night

Compound: CCCCC/C=C/C=C/C(=O)OC(C)C [Isopropyl (2E,4E)-2,4-Decadienoate]
- FEMALE CM Captured: ♂♂/trap/night ± SEM (codling moth [1]): 0.09 ± 0.04 ♀♀/trap/night
- MALE CM Captured: ♂♂/trap/night ± SEM (codling moth [1]): 0.05 ± 0.02 ♂♂/trap/night
- Total CM Captured: CM/trap/night ± SEM (codling moth [1]): 0.14 ± 0.05 CM/trap/night

Compound: C=C/C(C)=C/C/C=C(\C)CCC=C(C)C [alpha-Farnesene]
- % Change (Ph+HPV/Phxl00) in Male CM Capture (male codling moth): 86%
- Impact of HPV Blend on Pheromone Attractancy to Male CM (male codling moth): No Effect
- Male CM Capture with Pheromone + HPV Blend: ♂♂/trap/night ± SEM (male codling moth; 10 mg/red septum): 1.38 ± 0.39 ♂♂/trap/night

Compound: C=C1/C=C/[C@H](C(C)C)CC/C(C)=C/CC1 [Germacrene-D]
- % Change (Ph+HPV/Phxl00) in Male CM Capture (male codling moth): 109%
- Impact of HPV Blend on Pheromone Attractancy to Male CM (male codling moth): No Effect
- Male CM Capture with Pheromone + HPV Blend: ♂♂/trap/night ± SEM (male codling moth; 10 mg/red septum): 0.86 ± 0.19 ♂♂/trap/night

Compound: C=C/C(C)=C/CC=C(C)C [(E)-β-Ocimene]
- % of pheromone-alone capture (line under HPV + Pheromone value) (male codling moth; Table 8, Orchard #1): 135%
- Male CM Captured, HPV + Pheromone Trap: ± SEM (male codling moth; Table 8, Orchard #1, 10 mg/red septum): 1.40 ± 0.25 ♂♂/trap/night
- % of pheromone-alone capture (line under HPV + Pheromone value) (male codling moth; Table 8, Orchard #2): 114%
- Male CM Captured, HPV + Pheromone Trap ± SEM (male codling moth; Table 8, Orchard #2, 10 mg/red septum): 0.88 ± 0.17 ♂♂/trap/night
- % of pheromone-alone capture (line under HPV + Pheromone value) (male codling moth; Table 8, Orchard #3): 102%
- Male CM Captured, HPV + Pheromone Trap: ± SEM (male codling moth; Table 8, Orchard #3, 10 mg/red septum): 2.38 ± 0.34 ♂♂/trap/night
- % of pheromone-alone capture (line under HPV + Pheromone value) (male codling moth; Table 8, Orchard #4): 96%
- Average % Change in ♂♂ CM Capture (male codling moth; Table 8, average of four orchards): 112%

Compound: C=CC(=C)CCC=C(C)C [Myrcene]
- % Change (Ph+HPV/Phxl00) in Male CM Capture (male codling moth): 84%
- Impact of HPV Blend on Pheromone Attractancy to Male CM (male codling moth): No Effect
- Male CM Capture with Pheromone + HPV Blend: ♂♂/trap/night ± SEM (male codling moth; 10 mg/red septum): 1.03 ± 0.26 ♂♂/trap/night

Compound: CCCCC/C=C\C=C\C(=O)OCC [A, ethyl (2E,4Z)-2,4-decadienoate]
- ♀♀ ± SEM (codling moth [2]; [3]): 1.40 ± 0.52
- ♂♂ ± SEM (codling moth [2]; [3]): 5.88 ± 1.80
- ♀♀ ± SEM (codling moth [2]; [4]): 1.05 ± 0.49
- ♂♂ ± SEM (codling moth [2]; [4]): 0.97 ± 0.47
- ♀♀ ± SEM (codling moth [2]; [5]): 2.76 ± 0.80
- ♂♂ ± SEM (codling moth [2]; [5]): 1.04 ± 0.41
- ♀♀ ± SEM (codling moth [2]; [6]): 0.43 ± 0.18
- ♂♂ ± SEM (codling moth [2]; [6]): 0.78 ± 0.55
- ♀♀ ± SEM (codling moth [2]; [7]): 4.77 ± 1.34
- ♂♂ ± SEM (codling moth [2]; [7]): 3.86 ± 1.55
- ♀♀ ± SEM (codling moth [2]; [8]): 0.84 ± 0.30
- ♂♂ ± SEM (codling moth [2]; [8]): 1.13 ± 0.63
- ♀♀ ± SEM (codling moth [2]; 1.0 mg A, Red Septa, High (high population conventional orchard)): 4.12 ± 1.37
- ♀♀ ± SEM (codling moth [2]; [9]): 1.06 ± 0.49
- ♂♂ ± SEM (codling moth [2]; [9]): 1.38 ± 0.60
- ♀♀ ± SEM (codling moth [2]; [10]): 5.25 ± 1.33
- ♂♂ ± SEM (codling moth [2]; [10]): 6.20 ± 1.25
- ♀♀ ± SEM (codling moth [2]; [11]): 1.18 ± 0.37
- ♂♂ ± SEM (codling moth [2]; [11]): 2.02 ± 0.72
- ♀♀ ± SEM (codling moth [2]; [12]): 6.46 ± 1.98
- ♂♂ ± SEM (codling moth [2]; [12]): 4.40 ± 1.28
- ♀♀ ± SEM (codling moth [2]; [13]): 0.69 ± 0.26
- ♂♂ ± SEM (codling moth [2]; [13]): 0.78 ± 0.35
- ♀♀ ± SEM (codling moth [2]; [14]): 5.77 ± 1.30
- ♂♂ ± SEM (codling moth [2]; [14]): 3.59 ± 0.92
- ♀♀ ± SEM (codling moth [2]; [15]): 1.28 ± 0.33
- ♂♂ ± SEM (codling moth [2]; [15]): 1.29 ± 0.36
- ♀♀ ± SEM (codling moth [2]; [16]): 7.04 ± 1.90
- ♂♂ ± SEM (codling moth [2]; [16]): 4.25 ± 0.99
- ♀♀ ± SEM (codling moth [2]; [17]): 0.57 ± 0.15
- ♂♂ ± SEM (codling moth [2]; [17]): 0.87 ± 0.41
- ♀♀ ± SEM (codling moth [2]; [18]): 3.59 ± 1.46
- ♂♂ ± SEM (codling moth [2]; [18]): 6.14 ± 1.46
- ♀♀ ± SEM (codling moth [2]; [19]): 2.83 ± 1.07
- ♂♂ ± SEM (codling moth [2]; [19]): 2.97 ± 0.97
- ♀♀ ± SEM (codling moth [2]; [20]): 5.43 ± 1.78
- ♂♂ ± SEM (codling moth [2]; [20]): 2.87 ± 0.88
- ♀♀ ± SEM (codling moth [2]; [21]): 0.66 ± 0.15
- ♂♂ ± SEM (codling moth [2]; [21]): 0.94 ± 0.20
- ♂♂ ± SEM (50 mg A) (codling moth [2]; [22]): 10.15 ± 2.04
- ♂♂ ± SEM (under 50 mg A) (codling moth [2]; [22]): 6.18 ± 1.60
- ♂♂ ± SEM (50 mg A) (codling moth [2]; [23]): 1.79 ± 0.69
- ♂♂ ± SEM (under 50 mg A) (codling moth [2]; [23]): 2.04 ± 0.83
- ♂♂ ± SEM (50 mg A) (codling moth [2]; [24]): 7.30 ± 2.00
- ♂♂ ± SEM (under 50 mg A) (codling moth [2]; [24]): 3.63 ± 0.93
- ♂♂ ± SEM (50 mg A) (codling moth [2]; [25]): 0.74 ± 0.24
- ♂♂ ± SEM (under 50 mg A) (codling moth [2]; [25]): 0.57 ± 0.18

Compound: CCCCC/C=C/C=C/C(=O)OCCCC [Butyl (2E,4E)-2,4-Decadienoate]
- FEMALE CM Captured: ♂♂/trap/night ± SEM (codling moth [1]): 0 ♀♀/trap/night
- MALE CM Captured: ♂♂/trap/night ± SEM (codling moth [1]): 0.02 ± 0.02 ♂♂/trap/night
- Total CM Captured: CM/trap/night ± SEM (codling moth [1]): 0.02 ± 0.02 CM/trap/night
